Data taken from patent EP4745135A1 (Gluetacs Therapeutics (Shanghai) Co., Ltd., priority 2023, dated 2025).

Target: T1, human Cereblon WT GST-tagged protein (Homo sapiens, UniProt Q96SW2)
T1 construct: purchased CISBIO 64BDCRBNPEH
Assay: CRBN-binding affinity, HTRF (CEREBLON BINDING kit)
Conditions: for inhibition at 0.5 µM: read-out: Inhibition Rate at 0.5 µM (%); for inhibition at 2 µM: read-out: Inhibition Rate at 2 µM (%)
Description: The CEREBLON BINDING kits (specification: 10,000 tests; product number: Catalog # 64BDCRBNPEH; CISBIO company) was used to determine the CRBN binding ability of the compounds to be tested through a HTRF method (homogeneous time-resolved fluorescence). The specific methods are as follows: • 1. […] Specifically, diluent #9 (1X) solution was used as the diluent, and multiple concentration gradients were set. […] Then, 2.5 µL of human Cereblon WT GST-tagged protein solution was added to each well. Finally, 5 µL of the thoroughly mixed Thalidomide-Re reagent and GST Eu antibody working solution were added to each of the aforementioned wells. […] The blank control wells were sequentially added with 2.5 µL of diluent #9 (1X) solution, 2.5 µL of PROTAC binding buffer, and 5 µL of thoroughly mixed Thalidomide-Re reagent and GST Eu antibody working solution. • 4.

T1 sequence (Q96SW2 whole entry): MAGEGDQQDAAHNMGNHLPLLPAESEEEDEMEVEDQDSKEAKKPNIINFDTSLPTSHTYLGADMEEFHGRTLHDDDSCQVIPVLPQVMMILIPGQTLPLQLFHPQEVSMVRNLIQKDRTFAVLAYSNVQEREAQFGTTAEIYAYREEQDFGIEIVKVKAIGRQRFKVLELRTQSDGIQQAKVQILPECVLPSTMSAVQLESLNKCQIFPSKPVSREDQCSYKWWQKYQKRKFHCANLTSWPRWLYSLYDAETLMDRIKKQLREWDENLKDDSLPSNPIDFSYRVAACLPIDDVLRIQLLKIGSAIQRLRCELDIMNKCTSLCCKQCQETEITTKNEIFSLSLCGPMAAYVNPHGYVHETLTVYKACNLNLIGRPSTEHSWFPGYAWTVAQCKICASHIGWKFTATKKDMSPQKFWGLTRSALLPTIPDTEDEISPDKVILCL

inhibition at 0.5 µM [%]	inhibition at 2 µM [%]	Compound
60 to 80	80 to 100	O=C1CCC(N2Cc3c(CN4CCN(c5nc(N6CCNCC6)c6sccc6n5)CC4)cccc3C2=S)C(=O)N1 (stereo not shown) [GT-09036, 3-(4-((4-(4-(piperazin-1-yl)thieno[3,2-d]pyrimidin-2-yl)piperazin-1-yl)methyl)-1-thioxoisoindolin-2-yl)piperidine-2,6-dione]
60 to 80	80 to 100	O=C1CCC(N2Cc3cc(CN4CCN(c5ccncc5Br)CC4)ccc3C2=S)C(=O)N1 (stereo not shown) [GT-09236, 3-(5-((4-(3-bromopyridin-4-yl)piperazin-1-yl)methyl)-1-thioxoisoindolin-2-yl)piperidine-2,6-dione]
60 to 80	80 to 100	O=C1CCC(N2Cc3cc(CN4CCN(c5ccncc5F)CC4)ccc3C2=S)C(=O)N1 (stereo not shown) [GT-09237, 3-(5-((4-(3-fluoropyridin-4-yl)piperazin-1-yl)methyl)-1-thioxoisoindolin-2-yl)piperidine-2,6-dione]
60 to 80	80 to 100	O=C1CCC(N2Cc3cc(CN4CCN(c5ccnc(Cl)c5F)CC4)ccc3C2=S)C(=O)N1 (stereo not shown) [GT-09239, 3-(5-((4-(2-chloro-3-fluoropyridin-4-yl)piperazin-1-yl)methyl)-1-thioxoisoindolin-2-yl)piperidine-2,6-dione]
60 to 80	80 to 100	O=C1CCC(N2Cc3cc(CN4CCN(c5c(F)cncc5Cl)CC4)ccc3C2=S)C(=O)N1 (stereo not shown) [GT-09243, 3-(5-((4-(3-chloro-5-fluoropyridin-4-yl)piperazin-1-yl)methyl)-1-thioxoisoindolin-2-yl)piperidine-2,6-dione]
80 to 100	80 to 100	O=C1CCC(N2Cc3cc(CN4CCN(c5c(Cl)cncc5Cl)CC4)ccc3C2=S)C(=O)N1 (stereo not shown) [GT-09246, 3-(5-((4-(3,5-dichloropyridin-4-yl)piperazin-1-yl)methyl)-1-thioxoisoindolin-2-yl)piperidine-2,6-dione]
60 to 80	80 to 100	O=C1CCC(N2Cc3cc(CN4CCN(c5cc(Cl)nnc5Cl)CC4)ccc3C2=S)C(=O)N1 (stereo not shown) [GT-09248, 3-(5-((4-(3,6-dichloropyridazin-4-yl)piperazin-1-yl)methyl)-1-thioxoisoindolin-2-yl)piperidine-2,6-dione]
60 to 80	80 to 100	O=C1CCC(N2Cc3cc(CN4CCN(c5ncncn5)CC4)ccc3C2=S)C(=O)N1 (stereo not shown) [GT-09249, 3-(5-((4-(1,3,5-triazin-2-yl)piperazin-1-yl)methyl)-1-thioxoisoindolin-2-yl)piperidine-2,6-dione]
60 to 80	80 to 100	O=C1CCC(N2Cc3cc(CN4CCN(c5ccc(Cl)nn5)CC4)ccc3C2=S)C(=O)N1 (stereo not shown) [GT-09251, 3-(5-((4-(6-chloropyridazin-3-yl)piperazin-1-yl)methyl)-1-thioxoisoindolin-2-yl)piperidine-2,6-dione]
60 to 80	80 to 100	O=C1CCC(N2Cc3cc(CN4CCN(c5cnccn5)CC4)ccc3C2=S)C(=O)N1 (stereo not shown) [GT-09253, 3-(5-((4-(pyrazin-2-yl)piperazin-1-yl)methyl)-1-thioxoisoindolin-2-yl)piperidine-2,6-dione]
60 to 80	80 to 100	O=C1CCC(N2Cc3cc(CN4CCN(c5ncnc(Cl)c5Cl)CC4)ccc3C2=S)C(=O)N1 (stereo not shown) [GT-09254, 3-(5-((4-(5,6-dichloropyrimidin-4-yl)piperazin-1-yl)methyl)-1-thioxoisoindolin-2-yl)piperidine-2,6-dione]
80 to 100	80 to 100	O=C1CCC(N2Cc3cc(CN4CCN(c5cnnc(Cl)c5Cl)CC4)ccc3C2=S)C(=O)N1 (stereo not shown) [GT-09255, 3-(5-((4-(5,6-dichloropyridazin-4-yl)piperazin-1-yl)methyl)-1-thioxoisoindolin-2-yl)piperidine-2,6-dione]
60 to 80	80 to 100	O=C1CCC(N2Cc3cc(CN4CCC(c5ccon5)CC4)ccc3C2=S)C(=O)N1 (stereo not shown) [GT-09256, 3-(5-((4-(isoxazol-3-yl)piperidin-1-yl)methyl)-1-thioxoisoindolin-2-yl)piperidine-2,6-dione]
60 to 80	80 to 100	O=C1CCC(N2Cc3cc(CN4CCN(c5noc6cc(F)ccc56)CC4)ccc3C2=S)C(=O)N1 (stereo not shown) [GT-09257]
60 to 80	80 to 100	O=C1CCC(N2Cc3cc(CN4CCN(c5noc6ccncc56)CC4)ccc3C2=S)C(=O)N1 (stereo not shown) [GT-09258, 3-(5-((4-(isoxazolo[4,5-c]pyridin-3-yl)piperazin-1-yl)methyl)-1-thioxoisoindolin-2-yl)piperidine-2,6-dione]
60 to 80	80 to 100	O=C1CCC(N2Cc3cc(CN4CCN(c5cccnn5)CC4)ccc3C2=S)C(=O)N1 (stereo not shown) [GT-09265, 3-(5-((4-(pyridazin-3-yl)piperazin-1-yl)methyl)-1-thioxoisoindolin-2-yl)piperidine-2,6-dione]
40 to 53	80 to 100	O=C1CCC(N2Cc3cc(CN4CCC(c5cccc6cnccc56)CC4)ccc3C2=S)C(=O)N1 (stereo not shown) [GT-09277, 3-(5-((4-(isoquinolin-5-yl)piperidin-1-yl)methyl)-1-thioxoisoindolin-2-yl)piperidine-2,6-dione]
60 to 80	80 to 100	O=C1CCC(N2Cc3cc(CN4CC(c5ccnc6cc(F)ccc56)C4)ccc3C2=S)C(=O)N1 (stereo not shown) [GT-09279, 3-(5-((3-(7-fluoroquinolin-4-yl)azetidin-1-yl)methyl)-1-thioxoisoindolin-2-yl)piperidine-2,6-dione]
80 to 100	80 to 100	O=C1CCC(N2Cc3cc(CN4CCN(c5ncnc6sccc56)CC4)ccc3C2=S)C(=O)N1 (stereo not shown) [GT-09280, 3-(5-((4-(thieno[2,3-d]pyrimidin-4-yl)piperazin-1-yl)methyl)-1-thioxoisoindolin-2-yl)piperidine-2,6-dione]
60 to 80	80 to 100	Cc1cc2c(N3CCN(Cc4ccc5c(c4)CN(C4CCC(=O)NC4=O)C5=S)CC3)ncnc2s1 (stereo not shown) [GT-09282, 3-(5-((4-(6-methylthieno[2,3-d]pyrimidin-4-yl)piperazin-1-yl)methyl)-1-thioxoisoindolin-2-yl)piperidine-2,6-dione]
40 to 53	80 to 100	CC(C)c1cc2c(N3CCN(Cc4ccc5c(c4)CN(C4CCC(=O)NC4=O)C5=S)CC3)ncnc2s1 (stereo not shown) [GT-09284, 3-(5-((4-(6-isopropylthieno[2,3-d]pyrimidin-4-yl)piperazin-1-yl)methyl)-1-thioxoisoindolin-2-yl)piperidine-2,6-dione]

Compound	inhibition at 0.5 µM [%]	inhibition at 2 µM [%]
O=C1CCC(N2Cc3cc(CN4CCC(N5CCOc6cc(F)ccc65)CC4)ccc3C2=S)C(=O)N1 (stereo not shown) [GT-09272, 3-(5-((4-(7-fluoro-2,3-dihydro-4H-benzo[b][1,4]oxazin-4-yl)piperidin-1-yl)methyl)-1-thioxoisoindolin-2-yl)piperidine-2,6-dione]	60 to 80	80 to 100
O=C1CCC(N2Cc3cc(CN4CCC(N5C(=O)COc6cc(F)ccc65)CC4)ccc3C2=S)C(=O)N1 (stereo not shown) [GT-09273, 3-(5-((4-(7-fluoro-3-oxo-2,3-dihydro-4H-benzo[b][1,4]oxazin-4-yl)piperidin-1-yl)methyl)-1-thioxoisoindolin-2-yl)piperidine-2,6-dione]	60 to 80	80 to 100
